Data as given in patent publication US20230212549A1, “COMPOUNDS COMPRISING A […] LIGAND AND USE THEREOF” (priority 2021, published 2023).
Numbered stars: 1 amine (or outer) side, 2 acyl side, 3 side chain; on linkers, the order of the positions; unused ones are H or OH. Bridge positions count the residues as written; N and C are the ends. Square brackets hold non-standard residues; d marks the D form. Peptide text beside a SMILES is read from it. * marks the point of attachment. TBMB(SCH2CH2NH-DOTA) = O=C(O)CN1CCN(CC(=O)O)CCN(CC(=O)NCCSCc2cc(C[*:1])cc(C[*:2])c2)CCN(CC(=O)O)CC1; X13 = O=C(O)CN1CCN(CC(=O)O)CCN(CC(=O)N2CCN(Cc3cc(C[*:1])cc(C[*:2])c3)CC2)CCN(CC(=O)O)CC1; X18 = NCCNCC(CNCCN)C(=O)N[C@@H](CCC(=O)O)C(=O)NCCCOCCOCCOCCCN*; mXylylene = c1cc(C[*:1])cc(C[*:2])c1; Pentanesulfonyl = CCCCCS(=O)(=O)*; Suc = O=C(CCC(=O)[*:2])[*:1]; Nle = CCCC[C@H](N)C(=O)O; Hexanoyl = CCCCCC(=O)*; CO = O=C([*:1])[*:2]; Sar = CNCC(=O)O; NHBu = CCCCN*

Columns and labels:
[1] = biological target: T1, FAP-expressing human WI-38 fibroblasts (Homo sapiens, UniProt Q12884); test: Competitive FACS binding assay
T1 construct: FAP-expressing human WI-38 fibroblasts (ECACC) were cultured in EMEM; host or cells: WI-38 human fibroblasts
T1 sequence (Q12884 whole entry): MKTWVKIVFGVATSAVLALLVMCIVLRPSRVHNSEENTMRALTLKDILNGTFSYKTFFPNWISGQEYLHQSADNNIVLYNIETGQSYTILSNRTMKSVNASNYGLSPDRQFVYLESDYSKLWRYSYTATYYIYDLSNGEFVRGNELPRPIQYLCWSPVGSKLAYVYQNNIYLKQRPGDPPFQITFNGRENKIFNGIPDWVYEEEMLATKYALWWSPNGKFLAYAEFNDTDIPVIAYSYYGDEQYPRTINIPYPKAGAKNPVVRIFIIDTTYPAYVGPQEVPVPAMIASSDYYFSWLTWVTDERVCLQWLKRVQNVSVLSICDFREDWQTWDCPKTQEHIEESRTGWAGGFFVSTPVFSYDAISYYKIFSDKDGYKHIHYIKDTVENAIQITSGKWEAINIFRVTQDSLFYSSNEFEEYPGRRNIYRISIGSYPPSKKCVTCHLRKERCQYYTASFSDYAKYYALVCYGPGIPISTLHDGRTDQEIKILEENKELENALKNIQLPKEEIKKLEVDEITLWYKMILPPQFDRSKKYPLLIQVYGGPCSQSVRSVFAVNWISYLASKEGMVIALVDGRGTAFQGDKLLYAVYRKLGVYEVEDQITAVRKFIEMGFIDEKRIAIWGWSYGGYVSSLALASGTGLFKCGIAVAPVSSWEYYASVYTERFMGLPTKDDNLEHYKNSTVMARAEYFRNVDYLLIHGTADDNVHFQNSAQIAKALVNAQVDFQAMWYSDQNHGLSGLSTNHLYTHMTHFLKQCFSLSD
Description: Cells were analyzed in an Attune NxT flow cytometer. […] […].
Cells were analyzed in an Attune NxT flow cytometer. […]

Human recombinant FAP [2] = biological target: T2, Human recombinant FAP (Homo sapiens, UniProt Q12884); test: Surface plasmon resonance (Biacore) assay; assay type: binding; settings: for pKD Category: Biacore assay
T2 sequence (Q12884 whole entry): as above

Human recombinant FAP [3] = biological target: T2, Human recombinant FAP; test: FRET-based FAP protease activity assay; assay type: biochemical; design: purchased R&D systems 3715-SE; settings: pIC50 Category (Activity), 37° C.
[4] = FRET-based FAP protease activity assay, recombinant human FAP

Compound	IC50 [1] [nM]	Kd (Human recombinant FAP [2]) [nM]	IC50 (Human recombinant FAP [3]; [4]) [nM]	pKD Category (Human recombinant FAP [2])	IC50 (Human recombinant FAP [3]; FRET-peptide substrate) [nM]
CCCCCC(=O)N[C@H]1CSCc2cc(CSCCNC(=O)CN3CCN(CC(=O)O)CCN(CC(=O)O)CCN(CC(=O)O)CC3)cc(c2)CSC[C@@H](C(=O)O)NC(=O)[C@H](Cc2ccccc2)NC(=O)[C@H](CCC(N)=O)NC(=O)[C@H]([C@@H](C)O)NC(=O)[C@@H]2CCCN2C(=O)CN(C)C1=O [3BP-3678, Hex-[Cys(tMeBn(DOTA-AET))-Nmg-Pro-Thr-Gln-Phe-Cys]-OH] (Hexanoyl-C[Sar]PTQFC-OH; linker 1-7 via TBMB(SCH2CH2NH-DOTA))	< 10	< 10	< 10	–	–
CCCCCC(=O)N[C@H]1CSCc2cc(CSCCNC(=O)CN3CCN(CC(=O)O)CCN(CC(=O)O)CCN(CC(=O)O)CC3)cc(c2)CSC[C@@H](C(=O)O)NC(=O)[C@H](Cc2ccccc2)NC(=O)[C@H](CCC(N)=O)NC(=O)[C@H]([C@@H](C)O)NC(=O)[C@@H]2C[C@@H](O)CN2C(=O)[C@@H]2CCCN2C1=O [3BP-3679, Hex-[Cys(tMeBn(DOTA-AET))-Pro-Hyp-Thr-Gln-Phe-Cys]-OH]	< 10	< 10	< 10	–	–
CCCCCC(=O)N[C@H]1CSCc2cc(CSCCNC(=O)CN3CCN(CC(=O)O)CCN(CC(=O)O)CCN(CC(=O)O)CC3)cc(c2)CSC[C@@H](C(=O)O)NC(=O)[C@H](Cc2ccccc2C(F)(F)F)NC(=O)[C@H](CCC(N)=O)NC(=O)[C@H]([C@@H](C)O)NC(=O)[C@@H]2CCCN2C(=O)[C@@H]2CCCN2C1=O [3BP-3680, Hex-[Cys(tMeBn(DOTA-AET))-Pro-Pro-Thr-Gln-Otf-Cys]-OH]	< 10	< 10	< 10	–	–
CCCCCC(=O)N[C@H]1CSCc2cc(CSCCNC(=O)CN3CCN(CC(=O)O)CCN(CC(=O)O)CCN(CC(=O)O)CC3)cc(c2)CSC[C@@H](C(=O)N[C@H](CC(=O)O)C(N)=O)NC(=O)[C@H](Cc2ccccc2)NC(=O)[C@H](CCC(N)=O)NC(=O)[C@H]([C@@H](C)O)NC(=O)[C@@H]2CCCN2C(=O)[C@@H]2CCCN2C1=O [3BP-3681, Hex-[Cys(tMeBn(DOTA-AET))-Pro-Pro-Thr-Gln-Phe-Cys]-asp-NH2]	< 10	< 10	< 10	–	–
CCCCCS(=O)(=O)N[C@H]1CSCc2cc(cc(CN3CCN(C(=O)CN4CCN(CC(=O)O)CCN(CC(=O)O)CCN(CC(=O)O)CC4)CC3)c2)CSC[C@@H](C(=O)N[C@@H](CC(=O)O)C(N)=O)NC(=O)[C@H](Cc2ccccc2)NC(=O)[C@H](CCC(N)=O)NC(=O)[C@H]([C@@H](C)O)NC(=O)[C@@H]2CCCN2C(=O)[C@@H]2CCCN2C1=O [3BP-3692, Pentyl-SO2-[Cys(tMeBn(DOTA-PP))-Pro-Pro-Thr-Gln-Phe-Cys]-Asp-NH2] (Pentanesulfonyl-CPPTQFCD-NH2; linker 1-7 via X13)	< 10	< 10	< 10	–	–
CC(C)CCC(=O)N[C@H]1CSCc2cc(CSCCNC(=O)CN3CCN(CC(=O)O)CCN(CC(=O)O)CCN(CC(=O)O)CC3)cc(c2)CSC[C@@H](C(=O)O)NC(=O)[C@H](Cc2ccccc2)NC(=O)[C@H](CCC(N)=O)NC(=O)[C@H]([C@@H](C)O)NC(=O)[C@@H]2CCCN2C(=O)[C@@H]2CCCN2C1=O [3BP-3907, iHex-[Cys(tMeBn(DOTA-AET))-Pro-Pro-Thr-Gln-Phe-Cys]-OH]	< 10	< 10	–	A (Category A stands for pKD values >8.0)	< 10
CCCCC(=O)N[C@H]1CSCc2cc(CSCCNC(=O)CN3CCN(CC(=O)O)CCN(CC(=O)O)CCN(CC(=O)O)CC3)cc(c2)CSC[C@@H](C(=O)O)NC(=O)[C@H](Cc2ccccc2)NC(=O)[C@H](CCC(N)=O)NC(=O)[C@H]([C@@H](C)O)NC(=O)[C@@H]2CCCN2C(=O)[C@@H]2CCCN2C1=O [3BP-3910, Pent-[Cys(tMeBn(DOTA-AET))-Pro-Pro-Thr-Gln-Phe-Cys]-OH]	< 10	< 10	–	A (Category A stands for pKD values >8.0)	< 10
CCOCCC(=O)N[C@H]1CSCc2cc(CSCCNC(=O)CN3CCN(CC(=O)O)CCN(CC(=O)O)CCN(CC(=O)O)CC3)cc(c2)CSC[C@@H](C(=O)O)NC(=O)[C@H](Cc2ccccc2)NC(=O)[C@H](CCC(N)=O)NC(=O)[C@H]([C@@H](C)O)NC(=O)[C@@H]2CCCN2C(=O)[C@@H]2CCCN2C1=O [3BP-3918, EtOPr-[Cys(tMeBn(DOTA-AET))-Pro-Pro-Thr-Gln-Phe-Cys]-OH]	< 10	< 10	–	A (Category A stands for pKD values >8.0)	< 10
CCCCOC(=O)N[C@H]1CSCc2cc(CSCCNC(=O)CN3CCN(CC(=O)O)CCN(CC(=O)O)CCN(CC(=O)O)CC3)cc(c2)CSC[C@@H](C(=O)O)NC(=O)[C@H](Cc2ccccc2)NC(=O)[C@H](CCC(N)=O)NC(=O)[C@H]([C@@H](C)O)NC(=O)[C@@H]2CCCN2C(=O)[C@@H]2CCCN2C1=O [3BP-3941, nBu-COyl-[Cys(tMeBn(DOTA-AET))-Pro-Pro-Thr-Gln-Phe-Cys]-OH]	< 10	< 10	–	–	< 10
CCCC[C@H](NC(=O)CCC(=O)NCCCOCCOCCOCCCNC(=O)[C@H](CCC(=O)O)NC(=O)C(CNCCN)CNCCN)C(=O)N[C@H]1CSCc2cccc(c2)CSC[C@@H](C(=O)O)NC(=O)[C@H](Cc2ccccc2)NC(=O)[C@H](CCC(=O)O)NC(=O)[C@H]([C@@H](C)O)NC(=O)[C@@H]2CCCN2C(=O)[C@@H]2CCCN2C1=O [3BP-4222, N4Ac-Glu-Ttds-Nle-[Cys-(3MeBn)-Pro-Pro-Thr-Glu-Phe-Cys]-OH] ({X18-Suc}-[Nle]CPPTEFC-OH; linker 2-8 via mXylylene)	10 to 79.4	< 10	–	–	10 to 79.4
CCCC[C@H](NC(=O)CCC(=O)NCCCOCCOCCOCCCNC(=O)[C@H](CCC(=O)NC[C@H](O)[C@@H](O)[C@H](O)[C@H](O)CO)NC(=O)C(CNCCN)CNCCN)C(=O)N[C@H]1CSCc2cccc(c2)CSC[C@@H](C(=O)O)NC(=O)[C@H](Cc2ccccc2)NC(=O)[C@H](CCC(N)=O)NC(=O)[C@H]([C@@H](C)O)NC(=O)[C@@H]2CCCN2C(=O)[C@@H]2CCCN2C1=O [3BP-4246, N4Ac-Glu(AGLU)-Ttds-Nle-[Cys-(3MeBn)-Pro-Pro-Thr-Gln-Phe-Cys]-OH]	10 to 79.4	< 10	–	–	10 to 79.4
CCCCCC(=O)N[C@H]1CSCc2cc(CSCCNC(=O)COCCOCCNC(=O)CCC(C(=O)O)N3CCN(CC(=O)O)CCN(CC(=O)O)CC3)cc(c2)CSC[C@@H](C(=O)O)NC(=O)[C@H](Cc2ccccc2)NC(=O)[C@H](CCC(N)=O)NC(=O)[C@H]([C@@H](C)O)NC(=O)[C@@H]2CCCN2C(=O)[C@@H]2CCCN2C1=O (stereo partly drawn) [3BP-4251, Hex-[Cys-(tMeBn(NODAGA-O2Oc-AET))-Pro-Pro-Thr-Gln-Phe-Cys]-OH]	< 10	< 10	–	–	< 10
CCCCNC(=O)N[C@H]1CSCc2cc(cc(CN3CCN(C(=O)CN4CCN(CC(=O)O)CCN(CC(=O)O)CCN(CC(=O)O)CC4)CC3)c2)CSC[C@@H](C(=O)O)NC(=O)[C@H](Cc2ccccc2)NC(=O)[C@H](CCC(N)=O)NC(=O)[C@H]([C@@H](C)O)NC(=O)[C@@H]2CCCN2C(=O)[C@@H]2CCCN2C1=O [3BP-4564, nBu-CAyl-[Cys(tMeBn(DOTA-PP))-Pro-Pro-Thr-Gln-Phe-Cys]-OH]	< 10	< 10	–	–	< 10
CCCCNC(=O)N[C@H]1CSCc2cc(cc(CN3CCN(C(=O)CN4CCN(CC(=O)O)CCN(CC(=O)O)CCN(CC(=O)O)CC4)CC3)c2)CSC[C@@H](C(N)=O)NC(=O)[C@H](Cc2ccccc2)NC(=O)[C@H](CCC(N)=O)NC(=O)[C@H]([C@@H](C)O)NC(=O)[C@@H]2CCCN2C(=O)[C@@H]2CCCN2C1=O [3BP-4565, nBu-CAyl-[Cys(tMeBn(DOTA-PP))-Pro-Pro-Thr-Gln-Phe-Cys]-NH2]	< 10	< 10	–	–	< 10
CCCCNC(=O)N[C@H]1CSCc2cc(CSCCNC(=O)CN3CCN(CC(=O)O)CCN(CC(=O)O)CCN(CC(=O)O)CC3)cc(c2)CSC[C@@H](C(=O)O)NC(=O)[C@H](Cc2ccccc2)NC(=O)[C@H](CCC(N)=O)NC(=O)[C@H]([C@@H](C)O)NC(=O)[C@@H]2CCCN2C(=O)CN(C)C1=O [3BP-4607, nBu-CAyl-[Cys(tMeBn(DOTA-AET))-Nmg-Pro-Thr-Gln-Phe-Cys]-OH] ({NHBu-CO}-C[Sar]PTQFC-OH; linker 1-7 via TBMB(SCH2CH2NH-DOTA))	< 10	< 10	–	–	< 10
CCCCNC(=O)N[C@H]1CSCc2cc(CSCCNC(=O)CN3CCN(CC(=O)O)CCN(CC(=O)O)CCN(CC(=O)O)CC3)cc(c2)CSC[C@@H](C(N)=O)NC(=O)[C@H](Cc2ccccc2)NC(=O)[C@H](CCC(N)=O)NC(=O)[C@H]([C@@H](C)O)NC(=O)[C@@H]2CCCN2C(=O)CN(C)C1=O [3BP-4621, nBu-CAyl-[Cys(tMeBn(DOTA-AET))-Nmg-Pro-Thr-Gln-Phe-Cys]-NH2] ({NHBu-CO}-C[Sar]PTQFC-NH2; linker 1-7 via TBMB(SCH2CH2NH-DOTA))	< 10	< 10	–	–	< 10
